Assay results taken from PubChem BioAssay (NCI).
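GI50 = concentration required for 50% inhibition of growth. TGI marks complete inhibition of growth.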

Legend:
Assay in all cases: NCI-60 cell line screen, 384-well format
CAKI-1 renal = test system: CAKI-1 renal
U251 glioblastoma = test system: U251 glioblastoma
M14 melanoma = test system: M14 melanoma
MALME-3M melanoma = test system: MALME-3M melanoma
UACC-62 melanoma = test system: UACC-62 melanoma
TK-10 renal = test system: TK-10 renal
HCC-2998 colon = test system: HCC-2998 colon
HL-60(TB) leukemia = test system: HL-60(TB) leukemia
RXF 393 renal = test system: RXF 393 renal
OVCAR-4 ovarian = test system: OVCAR-4 ovarian
MDA-MB-468 breast = test system: MDA-MB-468 breast
SNB-75 CNS = test system: SNB-75 CNS
IGROV1 ovarian = test system: IGROV1 ovarian
PC-3 prostate = test system: PC-3 prostate
NCI-H226 lung = test system: NCI-H226 lung
DU-145 prostate = test system: DU-145 prostate
SF-268 CNS = test system: SF-268 CNS
HCT-15 colon = test system: HCT-15 colon
786-0 renal = test system: 786-0 renal
HOP-92 NSCLC = test system: HOP-92 NSCLC
T-47D breast = test system: T-47D breast
UACC-257 melanoma = test system: UACC-257 melanoma
SK-MEL-5 melanoma = test system: SK-MEL-5 melanoma
MCF7 breast = test system: MCF7 breast
A549 NSCLC = test system: A549 NSCLC
A498 renal = test system: A498 renal
ACHN renal = test system: ACHN renal
HCT-116 colon = test system: HCT-116 colon
SNB-19 CNS = test system: SNB-19 CNS
BT-549 breast = test system: BT-549 breast
SW-620 colon = test system: SW-620 colon
HT29 colon = test system: HT29 colon
RPMI-8226 leukemia = test system: RPMI-8226 leukemia
UO-31 renal = test system: UO-31 renal
LOX IMVI melanoma = test system: LOX IMVI melanoma
KM12 colon = test system: KM12 colon
SK-MEL-28 melanoma = test system: SK-MEL-28 melanoma
HOP-62 NSCLC = test system: HOP-62 NSCLC
EKVX NSCLC = test system: EKVX NSCLC

## CC(=O)c1nc(-c2ccc(C[C@@H](CNC(=O)CN(C)C)NC(=O)c3ccc(OC(C)C)c(Cl)c3)cc2)cn1C
CAKI-1 renal
  GI50: 45.4 nM
  TGI: 16500 nM
U251 glioblastoma
  GI50: 16.2 nM
  TGI: 16900 nM
M14 melanoma
  GI50: 17.4 nM
  TGI: 51.5 nM
MALME-3M melanoma
  GI50: 61.3 nM
  TGI: 1700 nM
UACC-62 melanoma
  GI50: 16.1 nM
  TGI: 17900 nM
TK-10 renal
  GI50: 10200 nM
  TGI: 21900 nM
HCC-2998 colon
  GI50: 18.1 nM
  TGI: 6860 nM
HL-60(TB) leukemia
  GI50: 14.9 nM
  TGI: 29 nM
RXF 393 renal
  GI50: 19.2 nM
  TGI: 10900 nM
OVCAR-4 ovarian
  GI50: 12500 nM
  TGI: 25100 nM
MDA-MB-468 breast
  TGI: 29.5 nM
SNB-75 CNS
  GI50: 55.8 nM
  TGI: 15800 nM
IGROV1 ovarian
  GI50: 54.1 nM
  TGI: 20400 nM
PC-3 prostate
  GI50: 31.4 nM
  TGI: 19100 nM
NCI-H226 lung
  GI50: 12200 nM
  TGI: 24600 nM
DU-145 prostate
  GI50: 16.9 nM
  TGI: 15900 nM
SF-268 CNS
  GI50: 12.3 nM
  TGI: 43.9 nM
HCT-15 colon
  GI50: 47.1 nM
  TGI: 16100 nM
786-0 renal
  GI50: 18.4 nM
  TGI: 14000 nM
HOP-92 NSCLC
  GI50: 1820 nM
  TGI: 18200 nM
T-47D breast
  GI50: 22.7 nM
  TGI: 13100 nM
UACC-257 melanoma
  GI50: 68.3 nM
  TGI: 1760 nM
SK-MEL-5 melanoma
  GI50: 25.4 nM
  TGI: 1180 nM
MCF7 breast
  GI50: 60.1 nM
  TGI: 18200 nM
A549 NSCLC
  GI50: 36.7 nM
  TGI: 16500 nM
A498 renal
  GI50: 39 nM
  TGI: 19400 nM
ACHN renal
  GI50: 11000 nM
  TGI: 23200 nM
HCT-116 colon
  GI50: 34.1 nM
  TGI: 15100 nM
SNB-19 CNS
  GI50: 14.5 nM
  TGI: 21500 nM
BT-549 breast
  GI50: 25.8 nM
  TGI: 13600 nM
SW-620 colon
  GI50: 47.3 nM
  TGI: 20600 nM
HT29 colon
  GI50: 13 nM
  TGI: 60 nM
RPMI-8226 leukemia
  GI50: 21.3 nM
  TGI: 42.9 nM
UO-31 renal
  GI50: 823 nM
  TGI: 20900 nM
LOX IMVI melanoma
  GI50: 62.8 nM
  TGI: 18000 nM
KM12 colon
  GI50: 13.9 nM
  TGI: 19800 nM
SK-MEL-28 melanoma
  GI50: 1130 nM
  TGI: 7500 nM
HOP-62 NSCLC
  GI50: 41.4 nM
  TGI: 20700 nM
EKVX NSCLC
  GI50: 24.1 nM
  TGI: 17300 nM
